# “Also recorded” adds a separate entry of the source. Like-named read-outs stand apart in the source and are kept apart here.
# Columns and labels:
# [1] = system: A549 lung cancer cells; conditions: 1 to 10 µM, predominantly after 48 and 72 h; cited from earlier work
# [2] = system: A549 lung cancer cells; conditions: for decrease of A549 viability: 100 μM, 24 h incubation, MTT; for decrease of cell viability, dose-dependent, maximum: A549 lung cancer cells
# [3] = target: T1, human erythrocyte AChE (Homo sapiens, UniProt P22303); assay: biochemical; conditions: for IC50: 10 min preincubation, ATCh 1 mM, N = 11, read-out: AChE IC50, inhibition of ATCh hydrolysis
# [4] = target: T2, α7 nAChR (Homo sapiens, UniProt P36544); assay: Ca2+ mobilization (agonist test) in SH-SY5Y cells; assay type: cell-based
# T2 construct: SH-SY5Y cells endogenously expressing α7 nAChR; host or cells: SH-SY5Y
# Method: Cells were cultured for two days at 37 °C on black 96-well plates. Immediately before the experiments, cells were incubated with […] Fluo-4AM ester reagent and 1.25 mM probenecid (organic anion transporter inhibitor) for 1 h at room temperature. After the incubation, the cells were washed out with the extracellular solution (140 mM NaCl, 2 mM CaCl2, 2.8 mM KCl, 4 mM MgCl2, 20 mM HEPES, 10 mM glucose; pH 7.4). The last washout was supplied with 10 uM α7 nAChR positive allosteric modulator PNU 120596 and tested compound. The excitation of Fluo-4 achieved at 485 nm and fluorescence registered at 535 nm using Hidex Sense Beta Plus (Turku, Finland) multi-well plate fluorimeter. The calcium rise amplitude was measured from the base level of each well.
# [5] = target: T3, equine serum BChE (Equus caballus, UniProt P81908); assay: Hydrolysis of the substance by BChE (HPLC); assay type: in vitro ADME, horse; conditions: 1 mM substance, 0.02 U/mL enzyme, pH 7.5, 25 °C
# Method: (§1) AChE and BChE hydrolysis of AA-CHOL was determined in 100 mM phosphate buffer, pH 7.5 at 25 °C, the AA-CHOL concentration was 1 mM, the incubation time was 40 min. The enzyme concentrations were 0.02 U/mL in the sample. The reverse phase HPLC method was used to estimate the hydrolysis of AA-CHOL. As a control, acetylthiocholine iodide (ATCh) hydrolysis was determined in the same conditions.
# [6] = system: sea urchin Strongylocentrotus droebachiensis and S. purpuratus embryo; set-up: method as in PMID 11443948; conditions: quenched by QX-222; cited from earlier work
# [7] = target: T3, equine serum BChE; assay: biochemical; conditions: for IC50: 10 min preincubation, ATCh 1 mM, N = 11, read-out: BChE IC50, inhibition of ATCh hydrolysis
# [8] = target: T1, human erythrocyte AChE; assay: Hydrolysis of the substance by AChE (HPLC); assay type: in vitro ADME; conditions: 1 mM substance, 0.02 U/mL enzyme, pH 7.5, 25 °C, 40 min
# Method: as §1
# [9] = target: T4, α1β3γ2 GABAAR (Mus musculus, UniProt P62812+P63080); assay: Electrophysiology, GABA-evoked currents in Xenopus oocytes; assay type: cell-based; conditions: up to a concentration of 10 μM
# T4 construct: expressed in transfected cells; host or cells: Xenopus oocytes, cDNA in PCI vector
# [10] = target: T5, mouse muscle nAChR (Mus musculus, UniProt P02716+P04756+P20782); assay: Two-electrode electrophysiology, ACh-evoked current in Xenopus oocytes; assay type: cell-based
# T5 construct: expressed in transfected cells; host or cells: Xenopus laevis oocytes, cDNA in pRBG4
# [11] = system: mouse forelimb grip strength; assay: In vivo myorelaxant activity, forelimb grip strength; conditions: mice
# [12] = system: A549 cells; assay: Caspase activation and apoptosis staining in A549 cells; assay type: cell-based; conditions: A549, 150 μM
# T2 sequence (P36544 23-502): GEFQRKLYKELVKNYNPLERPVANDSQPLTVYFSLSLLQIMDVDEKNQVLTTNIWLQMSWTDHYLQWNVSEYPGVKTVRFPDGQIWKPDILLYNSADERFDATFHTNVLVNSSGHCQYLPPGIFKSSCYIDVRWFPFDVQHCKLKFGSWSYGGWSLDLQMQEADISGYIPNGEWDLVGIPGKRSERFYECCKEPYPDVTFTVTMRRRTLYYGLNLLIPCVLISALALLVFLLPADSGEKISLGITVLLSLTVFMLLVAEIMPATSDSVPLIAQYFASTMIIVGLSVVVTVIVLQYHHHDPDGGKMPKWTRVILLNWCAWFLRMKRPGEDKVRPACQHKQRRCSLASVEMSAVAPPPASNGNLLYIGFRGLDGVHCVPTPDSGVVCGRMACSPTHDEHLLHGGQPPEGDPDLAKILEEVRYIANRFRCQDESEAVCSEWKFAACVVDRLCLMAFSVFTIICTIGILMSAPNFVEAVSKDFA
# T1 sequence (P22303 32-617 isoform P22303-2 limits assumed): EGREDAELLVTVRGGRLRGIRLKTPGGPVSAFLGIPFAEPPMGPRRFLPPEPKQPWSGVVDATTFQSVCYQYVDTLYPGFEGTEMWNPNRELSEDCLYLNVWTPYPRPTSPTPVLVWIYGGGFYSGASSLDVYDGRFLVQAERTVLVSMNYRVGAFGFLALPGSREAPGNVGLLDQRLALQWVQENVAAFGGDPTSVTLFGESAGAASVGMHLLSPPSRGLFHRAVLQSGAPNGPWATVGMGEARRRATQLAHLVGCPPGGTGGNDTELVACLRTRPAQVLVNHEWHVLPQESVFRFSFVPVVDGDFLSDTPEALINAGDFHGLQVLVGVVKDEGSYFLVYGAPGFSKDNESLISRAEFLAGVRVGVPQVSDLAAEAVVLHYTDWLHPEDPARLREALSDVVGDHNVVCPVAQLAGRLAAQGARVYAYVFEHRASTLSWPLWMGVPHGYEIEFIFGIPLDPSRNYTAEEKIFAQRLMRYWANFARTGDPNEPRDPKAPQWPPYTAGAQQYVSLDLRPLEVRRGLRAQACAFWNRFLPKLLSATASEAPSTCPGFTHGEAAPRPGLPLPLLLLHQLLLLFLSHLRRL
# T3 sequence (P81908 whole entry): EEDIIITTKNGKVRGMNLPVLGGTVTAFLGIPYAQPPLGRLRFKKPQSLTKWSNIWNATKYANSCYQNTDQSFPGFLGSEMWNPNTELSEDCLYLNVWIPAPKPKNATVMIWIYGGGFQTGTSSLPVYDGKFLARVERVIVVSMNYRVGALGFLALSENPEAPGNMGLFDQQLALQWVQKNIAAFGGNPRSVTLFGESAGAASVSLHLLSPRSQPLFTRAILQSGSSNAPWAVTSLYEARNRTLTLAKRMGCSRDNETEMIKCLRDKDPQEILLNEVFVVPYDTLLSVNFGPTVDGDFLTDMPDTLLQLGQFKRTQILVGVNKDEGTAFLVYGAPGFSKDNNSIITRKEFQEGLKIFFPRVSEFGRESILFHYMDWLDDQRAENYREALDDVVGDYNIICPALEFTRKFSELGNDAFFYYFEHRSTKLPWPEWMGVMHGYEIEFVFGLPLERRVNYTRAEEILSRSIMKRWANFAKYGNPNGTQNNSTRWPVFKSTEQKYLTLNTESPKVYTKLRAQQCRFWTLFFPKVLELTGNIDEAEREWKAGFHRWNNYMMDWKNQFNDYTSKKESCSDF
# T5 sequence (P04756 21-457): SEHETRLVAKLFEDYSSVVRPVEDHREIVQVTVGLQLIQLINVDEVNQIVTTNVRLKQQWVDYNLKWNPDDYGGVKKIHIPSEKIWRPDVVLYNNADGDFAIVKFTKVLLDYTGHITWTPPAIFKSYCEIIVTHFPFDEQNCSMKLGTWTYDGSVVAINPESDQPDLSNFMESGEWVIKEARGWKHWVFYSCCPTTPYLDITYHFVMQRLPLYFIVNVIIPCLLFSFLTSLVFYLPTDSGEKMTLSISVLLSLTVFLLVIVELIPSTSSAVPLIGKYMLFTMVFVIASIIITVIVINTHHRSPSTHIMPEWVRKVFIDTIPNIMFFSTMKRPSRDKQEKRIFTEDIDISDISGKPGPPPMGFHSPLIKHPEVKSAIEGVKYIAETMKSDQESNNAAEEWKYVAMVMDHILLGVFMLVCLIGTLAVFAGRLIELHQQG
# T5 sequence (P09690 24-501 partner): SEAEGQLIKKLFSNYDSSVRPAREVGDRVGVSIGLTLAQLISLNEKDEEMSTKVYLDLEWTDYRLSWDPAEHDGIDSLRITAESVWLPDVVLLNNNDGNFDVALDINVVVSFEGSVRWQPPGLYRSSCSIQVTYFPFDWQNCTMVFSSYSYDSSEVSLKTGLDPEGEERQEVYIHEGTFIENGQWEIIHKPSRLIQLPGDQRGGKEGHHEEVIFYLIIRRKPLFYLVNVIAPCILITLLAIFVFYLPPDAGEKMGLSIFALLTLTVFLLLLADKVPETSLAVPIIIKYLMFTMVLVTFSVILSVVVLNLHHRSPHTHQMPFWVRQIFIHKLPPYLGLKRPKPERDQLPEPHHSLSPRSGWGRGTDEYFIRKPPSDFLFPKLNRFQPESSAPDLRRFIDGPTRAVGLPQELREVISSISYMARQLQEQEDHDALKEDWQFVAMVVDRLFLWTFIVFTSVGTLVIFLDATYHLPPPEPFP
# T5 sequence (P02716 25-520): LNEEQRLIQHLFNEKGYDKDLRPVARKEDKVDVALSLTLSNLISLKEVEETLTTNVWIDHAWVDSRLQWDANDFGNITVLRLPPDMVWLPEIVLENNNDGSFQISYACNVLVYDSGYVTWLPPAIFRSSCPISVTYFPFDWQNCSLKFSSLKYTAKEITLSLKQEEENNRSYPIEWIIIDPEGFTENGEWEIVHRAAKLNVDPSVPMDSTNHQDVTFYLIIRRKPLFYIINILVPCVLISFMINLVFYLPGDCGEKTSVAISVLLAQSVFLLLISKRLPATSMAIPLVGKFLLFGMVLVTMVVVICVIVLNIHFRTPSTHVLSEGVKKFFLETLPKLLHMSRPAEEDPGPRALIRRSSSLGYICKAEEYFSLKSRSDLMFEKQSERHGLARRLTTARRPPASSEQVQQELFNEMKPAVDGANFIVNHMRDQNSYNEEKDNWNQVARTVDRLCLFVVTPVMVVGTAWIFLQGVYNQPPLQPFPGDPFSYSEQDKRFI
# T5 sequence (P20782 21-493): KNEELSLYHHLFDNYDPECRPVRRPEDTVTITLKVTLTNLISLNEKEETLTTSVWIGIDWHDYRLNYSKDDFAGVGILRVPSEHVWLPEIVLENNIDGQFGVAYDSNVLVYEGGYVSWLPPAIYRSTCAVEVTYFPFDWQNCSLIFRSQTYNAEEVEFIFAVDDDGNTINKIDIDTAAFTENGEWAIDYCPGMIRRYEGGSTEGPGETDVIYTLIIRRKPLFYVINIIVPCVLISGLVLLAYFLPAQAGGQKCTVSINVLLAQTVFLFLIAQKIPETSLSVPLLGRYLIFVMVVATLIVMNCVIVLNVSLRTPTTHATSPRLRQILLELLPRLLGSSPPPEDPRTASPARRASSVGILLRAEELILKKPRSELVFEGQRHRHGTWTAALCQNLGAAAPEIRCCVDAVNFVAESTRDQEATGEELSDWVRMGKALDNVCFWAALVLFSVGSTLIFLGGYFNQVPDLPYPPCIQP
# T4 sequence (P62812 28-455): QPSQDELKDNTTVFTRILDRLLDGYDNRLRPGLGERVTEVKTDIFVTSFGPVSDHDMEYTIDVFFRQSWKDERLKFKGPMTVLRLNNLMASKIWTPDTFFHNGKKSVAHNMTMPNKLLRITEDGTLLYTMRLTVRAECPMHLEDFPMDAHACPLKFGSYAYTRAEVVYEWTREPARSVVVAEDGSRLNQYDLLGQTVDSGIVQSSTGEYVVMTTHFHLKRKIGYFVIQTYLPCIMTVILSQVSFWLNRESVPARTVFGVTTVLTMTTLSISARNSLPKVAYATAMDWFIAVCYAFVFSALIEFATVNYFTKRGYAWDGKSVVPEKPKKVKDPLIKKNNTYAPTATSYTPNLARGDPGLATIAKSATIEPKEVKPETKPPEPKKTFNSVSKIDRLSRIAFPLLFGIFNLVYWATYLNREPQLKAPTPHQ
# T4 sequence (P63080 26-473): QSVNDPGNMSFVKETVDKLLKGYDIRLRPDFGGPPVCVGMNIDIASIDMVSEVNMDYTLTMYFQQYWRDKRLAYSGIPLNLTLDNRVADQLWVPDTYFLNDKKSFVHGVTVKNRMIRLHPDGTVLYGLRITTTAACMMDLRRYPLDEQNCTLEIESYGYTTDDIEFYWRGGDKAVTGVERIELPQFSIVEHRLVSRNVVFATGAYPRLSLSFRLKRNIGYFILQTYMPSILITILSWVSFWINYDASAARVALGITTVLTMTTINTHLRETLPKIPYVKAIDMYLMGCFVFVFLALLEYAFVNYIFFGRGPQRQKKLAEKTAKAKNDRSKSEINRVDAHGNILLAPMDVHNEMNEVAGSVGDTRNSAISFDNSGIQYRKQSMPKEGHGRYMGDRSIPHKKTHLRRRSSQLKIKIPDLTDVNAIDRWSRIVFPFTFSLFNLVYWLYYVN
# T4 sequence (P22723 39-474 partner): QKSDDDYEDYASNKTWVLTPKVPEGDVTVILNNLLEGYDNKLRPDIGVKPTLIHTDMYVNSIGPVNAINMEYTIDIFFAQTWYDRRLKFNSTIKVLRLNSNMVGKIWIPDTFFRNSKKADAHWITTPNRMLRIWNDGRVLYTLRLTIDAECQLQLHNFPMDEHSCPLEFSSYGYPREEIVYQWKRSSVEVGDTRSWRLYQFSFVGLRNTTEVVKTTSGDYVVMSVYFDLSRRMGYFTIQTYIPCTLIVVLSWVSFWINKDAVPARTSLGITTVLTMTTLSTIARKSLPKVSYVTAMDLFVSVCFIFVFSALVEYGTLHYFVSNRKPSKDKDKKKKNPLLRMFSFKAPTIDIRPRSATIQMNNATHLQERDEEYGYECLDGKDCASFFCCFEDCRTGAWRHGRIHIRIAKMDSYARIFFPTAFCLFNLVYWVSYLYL
smiles,measurement,setting,value
"CCN1C[C@]2(COC(=O)c3ccccc3N3C(=O)C[C@H](C)C3=O)CC[C@H](OC)[C@@]34[C@@H]5C[C@H]6[C@H](OC)[C@@H]5[C@](O)(C[C@@H]6OC)[C@@](O)([C@@H](OC)[C@H]23)[C@@H]14 [methyllycaconitine, reference compound]",effect on proliferation of the A549 cells,[1],inhibits the proliferation
same,effect on A549 proliferation,[2]; up to the concentration of 10 μM,did not affect
"CCCCC/C=C\C/C=C\C/C=C\C/C=C\CCCC(=O)OCC[N+](C)(C)C [AA-CHOL, Arachidonoylcholine]",IC50,[3],90 ± 1 µM
same,type of AChE inhibition,[3]; steady-state kinetics,mixed type mechanism; also recorded: mixed-type inhibition
same,"αKi (noncompetitive component), AChE","[3]; steady-state, Lineweaver-Burk",51.4 ± 4.1 µM
same,Ki,"[3]; steady-state, Lineweaver-Burk, read-out: Ki (competitive component), AChE",16.7 ± 1.5 µM
same,induction of rise in intracellular Ca2+ (agonistic properties),[4],showed no agonistic properties
same,hydrolysis by BChE,[5]; during 40 min,up to 30%
same,effect on sea urchin larva,[6],dose-dependently induced the larva immobilization and cell lysis
same,decrease of A549 viability,[2],10%
same,"decrease of cell viability, dose-dependent, maximum",[2],up to 45%
same,IC50,[7],170 ± 16 µM
same,type of BChE inhibition,[7]; steady-state kinetics,mixed type mechanism; also recorded: mixed-type inhibition
same,"αKi (noncompetitive component), BChE","[7]; steady-state, Lineweaver-Burk",214 ± 17 µM
same,Ki,"[7]; steady-state, Lineweaver-Burk, read-out: Ki (competitive component), BChE",70.5 ± 6.3 µM
same,hydrolysis by AChE,[8],not hydrolyzed
same,functional inhibition of α1β3γ2 GABAAR,[9],no functional inhibition
same,IC50,[10],3.16 ± 0.26 µM
same,"muscle relaxant effect, grip strength vs control","[11]; injection into front paws (intramuscular) 0.5, 1 and 4 mg/kg, 15 min to 4 h",no differences from the control group; also recorded: no difference from the control; also recorded: does not produce a significant muscle relaxation
same,"muscle relaxant effect, grip strength vs control","[11]; subcutaneous injection 10 and 30 mg/kg, up to 240 min",No differences with the respective controls; also recorded: no substance activity
"CN1CCC[C@H]1c1cccnc1 [Nicotine, reference compound]",effect on A549 proliferation,[2]; 15 μM,slightly decreased
same,effect on the cytotoxicity of Ol-CHOL,"[2]; A549, 90 or 100 μM of Ol-CHOL",did not affect the cytotoxicity
CCCCC/C=C\C/C=C\CCCCCCCC(=O)OCC[N+](C)(C)C [Ln-CHOL],AChE inhibitory activity,[3],Neither Ln-CHOL nor DHA-CHOL had noticeable inhibitory activity
same,IC50,[3],> 300 µM
same,induction of rise in intracellular Ca2+ (agonistic properties),[4],showed no agonistic properties
same,decrease of A549 viability,[2],10%
same,"decrease of cell viability, dose-dependent, maximum",[2],up to 45%
same,IC50,[7],> 300 µM
"CC(=O)SCC[N+](C)(C)C.[I-] [ATCh, acetylthiocholine iodide, reference compound]",hydrolysis by BChE,[5]; 40 min,fully hydrolyzed
same,hydrolysis by AChE,[8],fully hydrolyzed
CCCCCCCC/C=C\CCCCCCCC(=O)OCC[N+](C)(C)C [Ol-CHOL],phosphatidylserine exposure on the membrane,[12],phosphatidylserine exposure on the membrane
same,caspase 3 activation,[12]; 5 h,activation
same,caspase 8 activation,[12]; 5 h,not caspase 8 activation
same,caspase 9 activation,[12]; 5 h,activation
same,decrease of A549 viability,[2],45%
same,"decrease of cell viability, dose-dependent, maximum",[2],up to 45%
"CC/C=C\C/C=C\C/C=C\C/C=C\C/C=C\C/C=C\CCC(=O)OCC[N+](C)(C)C [DHA-CHOL, docosahexaenoylcholine]",AChE inhibitory activity,[3],Neither Ln-CHOL nor DHA-CHOL had noticeable inhibitory activity
same,IC50,[3],> 300 µM
same,induction of rise in intracellular Ca2+ (agonistic properties),[4],showed no agonistic properties
same,effect on sea urchin larva,[6],dose-dependently induced the larva immobilization and cell lysis
same,decrease of A549 viability,[2],inactive
same,IC50,[7],> 300 µM

# — publication PMC7072677, “Arachidonoylcholine and Other Unsaturated Long-Chain Acylcholines Are Endogenous Modulators of the Acetylcholine Signaling System” (Biomolecules, 2020)
